Converted amounts (≈) assume the structure as drawn.
How the values were obtained:
Assay type in all cases: functional
Enterobacter cloacae [1] = experiment: Antibacterial activity against Enterobacter cloacae ATCC 13047 after 20 hrs by agar dilution method; conditions: ATCC 13047, 20 h
Pseudomonas aeruginosa [2] = experiment: Antibacterial activity against Imipenem resistant Pseudomonas aeruginosa SR-6554 after 20 hrs by agar dilution method
Enterobacter cloacae [3] = experiment: Antibacterial activity against AmpC producing Enterobacter cloacae SR-4321 after 20 hrs by agar dilution method
Pseudomonas aeruginosa [4] = experiment: Antibacterial activity against Pseudomonas aeruginosa SR24 after 20 hrs by agar dilution method
Escherichia coli [5] = experiment: Antibacterial activity against Escherichia coli NIHJJC2 after 20 hrs by agar dilution method
Escherichia coli [6] = experiment: Antibacterial activity against Toho 2 (ESBL) producing Escherichia coli SR-21003 after 20 hrs by agar dilution method
Pseudomonas aeruginosa [7] = experiment: Antibacterial activity against AmpC hyperproducing Pseudomonas aeruginosa SR24-12 after 20 hrs by agar dilution method
Pseudomonas aeruginosa [8] = experiment: Antibacterial activity against Pseudomonas aeruginosa SR-5393 after 20 hrs by agar dilution method
Moraxella catarrhalis = experiment: Antibacterial activity against Moraxella catarrhalis ATCC 43617 after 20 hrs by agar dilution method; conditions: ATCC 43617, 20 h
Streptococcus pneumoniae = experiment: Antibacterial activity against penicillin resistant Streptococcus pneumoniae SR-16675 after 20 hrs by agar dilution method
Haemophilus influenzae [9] = experiment: Antibacterial activity against Haemophilus influenzae ATCC 49766 after 20 hrs by agar dilution method; conditions: ATCC 49766, 20 h
Staphylococcus aureus = experiment: Antibacterial activity against […] Staphylococcus aureus SMITH after 20 hrs by agar dilution method
Haemophilus influenzae [10] = experiment: Antibacterial activity against beta-lactamase negative ampicillin resistant Haemophilus influenzae SR-11435 after 20 hrs by agar dilution method
Pseudomonas aeruginosa [11] = experiment: Antibacterial activity against CAZ susceptible Pseudomonas aeruginosa SR24 infected in mouse after 7 days; conditions: 168 h
Pseudomonas aeruginosa [12] = experiment: Antibacterial activity against CAZ resistant Pseudomonas aeruginosa SR24-12 infected in mouse after 7 days; conditions: 168 h

Structure (SMILES) | MIC (Enterobacter cloacae [1]) [µg/mL] | MIC (Pseudomonas aeruginosa [2]) [µg/mL] | MIC (Enterobacter cloacae [3]) [µg/mL] | MIC (Pseudomonas aeruginosa [4]) [µg/mL] | MIC (Escherichia coli [5]) [µg/mL] | MIC (Escherichia coli [6]) [µg/mL] | MIC (Pseudomonas aeruginosa [7]) [µg/mL] | MIC (Pseudomonas aeruginosa [8]) [µg/mL] | MIC (Moraxella catarrhalis) [µg/mL] | MIC (Streptococcus pneumoniae) [µg/mL] | MIC (Haemophilus influenzae [9]) [µg/mL] | MIC (Staphylococcus aureus) [µg/mL] | MIC (Haemophilus influenzae [10]) [µg/mL] | ED50 (Pseudomonas aeruginosa [11]) [mg/kg] | ED50 (Pseudomonas aeruginosa [12]) [mg/kg]
CNCCCn1ccc2c1ccc[n+]2CC1=C(C(=O)[O-])N2C(=O)[C@@H](NC(=O)/C(=N\OC(C)(C)C(=O)O)c3csc(N)n3)[C@H]2SC1 | 1 (≈ 1.52 µM) | 16 (≈ 24.4 µM) | 16 (≈ 24.4 µM) | 1 (≈ 1.52 µM) | 0.25 (≈ 0.381 µM) | 2 (≈ 3.05 µM) | 32 (≈ 48.7 µM) | 2 (≈ 3.05 µM) |  |  |  |  |  |  | 
CNCCCn1cnc2c1ccc[n+]2CC1=C(C(=O)[O-])N2C(=O)[C@@H](NC(=O)/C(=N\OC(C)(C)C(=O)O)c3csc(N)n3)[C@H]2SC1 | 4 (≈ 6.08 µM) | 128 (≈ 195 µM) | 128 (≈ 195 µM) | 1 (≈ 1.52 µM) | 0.5 (≈ 0.76 µM) | 2 (≈ 3.04 µM) | > 128 | 4 (≈ 6.08 µM) |  |  |  |  |  |  | 
CNCCCn1ccc2c1ccc[n+]2CC1=C(C(=O)[O-])N2C(=O)[C@@H](NC(=O)/C(=N\O[C@@H](C)C(=O)O)c3nc(N)sc3C)[C@H]2SC1 | 4 (≈ 6.09 µM) | 64 (≈ 97.5 µM) | 16 (≈ 24.4 µM) | 1 (≈ 1.52 µM) | 2 (≈ 3.05 µM) | 32 (≈ 48.7 µM) | 8 (≈ 12.2 µM) | 4 (≈ 6.09 µM) | 0.5 (≈ 0.761 µM) | 8 (≈ 12.2 µM) | 0.125 (≈ 0.19 µM) | 4 (≈ 6.09 µM) | 2 (≈ 3.05 µM) |  | 
CNCCCn1ccc2c1ccc[n+]2CC1=C(C(=O)[O-])N2C(=O)[C@@H](NC(=O)/C(=N\O[C@@H](C)C(=O)O)c3nc(N)sc3Br)[C@H]2SC1 | 1 (≈ 1.39 µM) | 8 (≈ 11.1 µM) | 4 (≈ 5.54 µM) | 1 (≈ 1.39 µM) | 0.5 (≈ 0.693 µM) | 4 (≈ 5.54 µM) | 4 (≈ 5.54 µM) | 4 (≈ 5.54 µM) | 0.016 (≈ 0.0222 µM) | 4 (≈ 5.54 µM) | 0.063 (≈ 0.0873 µM) | 1 (≈ 1.39 µM) | 0.125 (≈ 0.173 µM) |  | 
CNCCCn1ccc2c1ccc[n+]2CC1=C(C(=O)[O-])N2C(=O)[C@@H](NC(=O)/C(=N\O[C@@H](C)C(=O)O)c3nc(N)sc3Cl)[C@H]2SC1 | 0.5 (≈ 0.738 µM) | 8 (≈ 11.8 µM) | 2 (≈ 2.95 µM) | 1 (≈ 1.48 µM) | 0.25 (≈ 0.369 µM) | 4 (≈ 5.91 µM) | 4 (≈ 5.91 µM) | 2 (≈ 2.95 µM) | 0.016 (≈ 0.0236 µM) | 2 (≈ 2.95 µM) | 0.032 (≈ 0.0473 µM) | 1 (≈ 1.48 µM) | 0.063 (≈ 0.093 µM) | 1.4 | 5.32
CNCCCn1ccc2c1ccc[n+]2CC1=C(C(=O)[O-])N2C(=O)[C@@H](NC(=O)/C(=N\O[C@H](C)C(=O)O)c3nc(N)sc3Cl)[C@H]2SC1 | 1 (≈ 1.48 µM) | 16 (≈ 23.6 µM) | 4 (≈ 5.91 µM) | 1 (≈ 1.48 µM) | 0.5 (≈ 0.738 µM) | 4 (≈ 5.91 µM) | 4 (≈ 5.91 µM) | 4 (≈ 5.91 µM) | 0.032 (≈ 0.0473 µM) | 4 (≈ 5.91 µM) | 0.063 (≈ 0.093 µM) | 2 (≈ 2.95 µM) | 0.25 (≈ 0.369 µM) |  | 
CNCCCn1ccc2c1ccc[n+]2CC1=C(C(=O)[O-])N2C(=O)[C@@H](NC(=O)/C(=N\O[C@@H](C)C(=O)O)c3csc(N)n3)[C@H]2SC1 | 0.25 (≈ 0.389 µM) | 16 (≈ 24.9 µM) | 16 (≈ 24.9 µM) | 0.5 (≈ 0.778 µM) | 0.063 (≈ 0.098 µM) | 1 (≈ 1.56 µM) | 32 (≈ 49.8 µM) | 2 (≈ 3.11 µM) | 0.125 (≈ 0.194 µM) | 8 (≈ 12.4 µM) | 0.032 (≈ 0.0498 µM) | 2 (≈ 3.11 µM) | 0.063 (≈ 0.098 µM) |  | 
CNCCCn1ccc2c1ccc[n+]2CC1=C(C(=O)[O-])N2C(=O)[C@@H](NC(=O)/C(=N\O[C@@H](C)C(=O)O)c3nc(N)sc3F)[C@H]2SC1 | 1 (≈ 1.51 µM) | 128 (≈ 194 µM) | > 128 | 1 (≈ 1.51 µM) | 0.031 (≈ 0.0469 µM) | 16 (≈ 24.2 µM) | > 128 | 8 (≈ 12.1 µM) | 0.5 (≈ 0.757 µM) | 16 (≈ 24.2 µM) | 0.063 (≈ 0.0954 µM) | 2 (≈ 3.03 µM) | 0.25 (≈ 0.378 µM) |  | 
CNCCCn1ccc2c1ccc[n+]2CC1=C(C(=O)[O-])N2C(=O)[C@@H](NC(=O)/C(=N\O[C@H](C(=O)O)C(C)C)c3nc(N)sc3Cl)[C@H]2SC1 | 4 (≈ 5.67 µM) | 16 (≈ 22.7 µM) | 8 (≈ 11.3 µM) | 2 (≈ 2.84 µM) | 2 (≈ 2.84 µM) | 8 (≈ 11.3 µM) | 8 (≈ 11.3 µM) | 8 (≈ 11.3 µM) | 0.016 (≈ 0.0227 µM) | 4 (≈ 5.67 µM) | 0.032 (≈ 0.0454 µM) | 1 (≈ 1.42 µM) | 0.063 (≈ 0.0893 µM) |  | 
CC[C@H](O/N=C(\C(=O)N[C@@H]1C(=O)N2C(C(=O)[O-])=C(C[n+]3cccc4c3ccn4CCCNC)CS[C@H]12)c1nc(N)sc1Cl)C(=O)O | 1 (≈ 1.45 µM) | 16 (≈ 23.1 µM) | 4 (≈ 5.79 µM) | 1 (≈ 1.45 µM) | 1 (≈ 1.45 µM) | 4 (≈ 5.79 µM) | 4 (≈ 5.79 µM) | 4 (≈ 5.79 µM) | 0.016 (≈ 0.0231 µM) | 4 (≈ 5.79 µM) | 0.032 (≈ 0.0463 µM) | 1 (≈ 1.45 µM) | 0.063 (≈ 0.0911 µM) |  | 

From ChEMBL document CHEMBL1149714 (2007)
